Laboratory results from patent publication US20020115688A1, “Screen for glutamate reuptake inhibitors, stimulators, and modulators” (priority 2000, published 2002).
Where two headings read alike, the source gives them in different places.

Experiments:
[1] = tested on: glutamate transporters (GLAST and GLT1); assay: [3H]-4MG binding to rat brain membrane homogenates; settings: FIG. 5
Protocol: (§1) Rat brain tissue, either freshly dissected or stored frozed at −20° C. is homogenized in HEPES buffer containing Na^+(5 mM HEPES, 96 mM NaCl, 1.8 mM CaCl2, 1 mM MgCl2 (pH 7.5 at 25° C.)), and membranes are washed twice in the same buffer using standard methods for subcellular fractionation and the preparation of brain membranes. Brain tissue is weighed and homogenized in 15 ml of assay buffer using a Polytron tissue homogenizer (setting 4, 10-15 seconds). […] The homogenate is centrifuged again (as above) and the pellet re-suspended in 20 to 25 volumes of buffer. Membrane homogenates make up 20% of final assay volume. Binding assays are also performed in the above buffer.
(§2) The range of concentrations of the receptor compound (for example, 10 nM-1 mM) is varied dependent on whether all or only a trace of the receptor compound is labeled. Following incubation of the receptor compounds (bound to the transporters) in the presence or absence of test compounds, binding is terminated by rapid filtration through Whatman GF/B filter discs and washing 3 times with buffer using a Brandel cell harvester. Binding is determined by any technique suitable for the label used. For isotope labels, scintillation spectrometry is preferred.
(§3) Forebrain tissue from female Sprague Dawley rats was homogenised in HEPES buffer containing Na^+, and membranes were washed twice in the same buffer. Binding experiments were also performed in this buffer. […] Binding was determined by scintillation spectrometry. A full range of association, dissociation, saturation and inhibition studies was performed over varying incubation times (up to 60 min). Data were analyzed using computer-assisted curve fitting. Values are expressed as mean of at least triplicate determinations and multiple experiments.
(§4) A full range of association, dissociation, saturation and inhibition studies was performed over varying incubation times (up to 60 min). Data were analyzed using computer-assisted curve fitting. Values cited are expressed as mean of at least triplicate determinations and multiple experiments.

GLAST = molecular target: T1, GLAST (Rattus norvegicus, UniProt P24942); settings: at concentrations below 1 mM; cited from earlier work
T1 sequence (P24942 1-543): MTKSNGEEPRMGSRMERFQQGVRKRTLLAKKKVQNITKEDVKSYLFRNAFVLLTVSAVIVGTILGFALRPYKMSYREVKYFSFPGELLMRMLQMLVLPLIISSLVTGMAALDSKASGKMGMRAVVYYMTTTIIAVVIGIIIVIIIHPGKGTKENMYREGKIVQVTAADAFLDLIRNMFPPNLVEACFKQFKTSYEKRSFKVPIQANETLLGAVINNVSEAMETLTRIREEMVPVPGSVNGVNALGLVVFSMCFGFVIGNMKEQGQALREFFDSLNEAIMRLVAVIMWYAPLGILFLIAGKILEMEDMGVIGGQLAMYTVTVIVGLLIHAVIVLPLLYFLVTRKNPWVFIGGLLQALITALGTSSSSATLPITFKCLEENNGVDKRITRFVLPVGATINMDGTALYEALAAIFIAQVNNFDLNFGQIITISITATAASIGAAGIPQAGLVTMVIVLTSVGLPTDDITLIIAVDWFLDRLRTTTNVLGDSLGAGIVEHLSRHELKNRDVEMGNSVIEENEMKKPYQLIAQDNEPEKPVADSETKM

[2] = molecular target: T2, glutamate transporters (GLAST and GLT1); assay: [3H]-4MG binding to rat brain membrane homogenates; settings: for IC50: read-out: IC50 for displacement of [3H]-4MG binding; for displacement of 4MG binding: at or above 100 μM, FIG. 5
T2 construct: Bmax; other: rat brain membrane homogenates; other: 20 nM [3H]-4MG, 15 minutes at 4° C; KD; association t½
Protocol: as §1, §2, §3, §4

[3] = Hydrolysis of prodrug to the acid form; assay type: in vitro ADME; settings: prodrug ester cleavage
Description: The ester, carbonate, and amine bond in any prodrug forms of compounds identified by the disclosed method can be readily cleaved in vivo. Therefore, prodrug compositions can be hydrolyzed to the corresponding acids form in plasma.

[4] = 20 nM [3H]-4MG, 15 minutes at 4° C., FIG. 3, FIG. 4

N[C@@H](Cn1cc(I)c(=O)[nH]c1=O)C(=O)O [IW, iodowillardine]
effect on 4MG and/or D-aspartate binding to GluTs [1]: failed to affect

NCCCC(=O)O [GABA, γ-aminobutyric acid]
effect on 4MG and/or D-aspartate binding to GluTs [1]: failed to affect

C=C(C)[C@H]1CN[C@H](C(=O)O)[C@H]1CC(=O)O [KA, kainate]
binding to GLAST (GLAST): do not bind

O=C(O)[C@H]1CN[C@H](C(=O)O)C1 [PDC, L-trans-pyrrolidine-2,4-dicarboxylate]
IC50 [2, 4]: 2.9 µM

CC(C)[C@H]1CN[C@H](C(=O)O)[C@H]1CC(=O)O [DHK, L-Dihydrokainate]
binding to GLAST (GLAST): do not bind

NCC(=O)O [GLY, glycine]
effect on 4MG and/or D-aspartate binding to GluTs [1]: failed to affect

N[C@H](C(=O)O)[C@H]1C[C@H]1C(=O)O [CCG-III, (2S,3S,4R)-2-(carboxycyclopropyl)glycine]
IC50 [2, 4]: 1.2 µM

N[C@@H](COS(=O)(=O)O)C(=O)O [SOS, L-serine-O-sulphate]
IC50 [2]: 40 µM

CN[C@H](CC(=O)O)C(=O)O [NMDA, N-methyl-D-aspartate]
displacement of 4MG binding [2]: failed to significantly displace

C[C@H](C[C@H](N)C(=O)O)C(=O)O [4MG, (2S,4R)-4-methyl glutamic acid]
Kd ([2]; rat brain membrane homogenates, FIG. 1): 5.4 µM

N[C@@H](Cn1cc(F)c(=O)[nH]c1=O)C(=O)O [FW, fluorowillardiine]
displacement of 4MG binding [2]: failed to significantly displace

CC(CC(=O)O)C(N)C(=O)O (racemic) [3MG, (±)-threo-3-methylglutamate]
binding to GLAST (GLAST): do not bind

COC(=O)[C@H](C)C[C@H](N)C(=O)OC [compound 2, (2S,4R)-4-methyl glutamic acid dimethyl ester]
hydrolysis to (2S,4R)-4-methyl glutamic acid (1) [3]: readily hydrolyzed

CC(C)(C)c1o[nH]c(=O)c1CC(N)C(=O)O (stereo not shown) [ATPA]
effect on 4MG and/or D-aspartate binding to GluTs [1]: failed to affect

N[C@@H](CC(=O)O)C(=O)O [L-aspartate]
IC50 [2, 4]: 7.5 µM

Cc1onc(O)c1CC(N)C(=O)O (stereo not drawn) [AMPA, α-amino-3-hydroxy-5-methyl-4-isoxazolepropionate]
displacement of 4MG binding [2]: failed to significantly displace
